From PubChem BioAssay (NCI)
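Following 48 hours of exposure in 96-well plates, responses at five concentrations were used to interpolate endpoints linearly. The concentration for 50% growth inhibition is given as GI50. TGI: concentration producing complete growth inhibition.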

How the values were obtained:
Assay in all cases: growth of human tumour cells (NCI), 48 h
A549 NSCLC = system: A549 NSCLC
ACHN renal = system: ACHN renal
HCC-2998 colon = system: HCC-2998 colon
M14 melanoma = system: M14 melanoma
OVCAR-3 ovarian = system: OVCAR-3 ovarian
OVCAR-8 ovarian = system: OVCAR-8 ovarian
SF-539 CNS = system: SF-539 CNS
SW-620 colon = system: SW-620 colon
UACC-62 melanoma = system: UACC-62 melanoma
UO-31 renal = system: UO-31 renal

Row | Structure (SMILES) | TGI (A549 NSCLC) | TGI (ACHN renal) | TGI (HCC-2998 colon) | TGI (M14 melanoma) | TGI (OVCAR-3 ovarian) | TGI (OVCAR-8 ovarian) | TGI (SF-539 CNS) | TGI (SW-620 colon) | TGI (UACC-62 melanoma) | TGI (UO-31 renal) | GI50 (A549 NSCLC) | GI50 (ACHN renal) | GI50 (HCC-2998 colon) | GI50 (M14 melanoma) | GI50 (OVCAR-3 ovarian) | GI50 (OVCAR-8 ovarian) | GI50 (SF-539 CNS) | GI50 (SW-620 colon) | GI50 (UACC-62 melanoma) | GI50 (UO-31 renal)
1 | O=c1nc(-c2ccccc2)cc(-c2ccccc2O)[nH]1 | > 100 µM | > 100 µM | > 100 µM | > 100 µM | > 100 µM | > 100 µM | > 100 µM | > 100 µM | > 100 µM | > 100 µM |  |  |  |  |  |  |  |  |  | 
2 | CC(C(=O)n1c2ccccc2c2ccccc21)N(c1ccccc1)c1ccccc1 (stereo not given) | 38.5 µM | 30.7 µM | 30.1 µM | 30.5 µM | 31.7 µM | 37.7 µM | 34.7 µM | 36 µM | 31.7 µM | 35.1 µM |  |  |  |  |  |  |  |  |  | 
3 | O=C(N/N=C/c1ccc([N+](=O)[O-])o1)c1ccc(O)cc1 | > 100 µM | > 100 µM | > 100 µM | 11.3 µM | 36.1 µM | > 100 µM | 17 µM | > 100 µM | 6.93 µM | > 100 µM | 4.71 µM | 5.46 µM | 4.98 µM | 3.67 µM | 8.33 µM | 4.86 µM | 4.39 µM | 3.85 µM | 2.21 µM | 23.7 µM
4 | CC/C=C/C/C=C/C/C=C/C/C=C/C/C=C/C/C=C/CCC(=O)Nc1ccn([C@@H]2O[C@H](CO)[C@@H](O)C2(F)F)c(=O)n1 | 20.4 µM | 14.6 µM | > 64.4 µM | 0.212 µM | 25.5 µM | 9.55 µM | 5.71 µM | 47.6 µM | 11.9 µM | 4.28 µM | 0.0369 µM | < 0.0132 µM | 14.9 µM | 0.0303 µM | 4.79 µM | 0.0345 µM | 0.0425 µM | 0.148 µM | 0.0499 µM | 0.0486 µM
5 | COC(=O)c1cc(/C=C/c2ccc(S(N)(=O)=O)cc2)ccc1O | > 100 µM | > 100 µM | 39.7 µM | > 100 µM | 62.7 µM | > 100 µM | 47.4 µM | > 100 µM | 66 µM | > 100 µM | 29.6 µM | 29.6 µM | 18 µM | 35.3 µM | 16.5 µM | 27.3 µM | 18.4 µM | 25.7 µM | 25.6 µM | 29.1 µM
6 | CCN(CC)CCNC(=O)c1ccc(C)c(OCc2ccccc2)c1[N+](=O)[O-] | > 100 µM | > 89.6 µM | > 69.1 µM | 32.3 µM | > 75.8 µM | > 100 µM | 70.9 µM | 44 µM | 39.6 µM | 50.5 µM |  |  |  |  |  |  |  |  |  | 
7 | CC[C@@]1(O)C(=O)OCc2c1cc1n(c2=O)Cc2c-1nc1cc(F)c(C)c3c1c2[C@@H](N)CC3 | 1.15 µM | 0.026 µM | 0.665 µM | 0.111 µM | 0.907 µM | > 100 µM | 0.0187 µM | > 100 µM | 0.0208 µM | 0.108 µM | < 0.01 µM | < 0.01 µM | 0.0314 µM | < 0.01 µM | 0.0339 µM | < 0.01 µM | < 0.01 µM | < 0.01 µM | < 0.01 µM | < 0.01 µM
8 | Cc1ccc(S(=O)(=O)NC(=O)NC2=NC(C)(C)N(c3ccc(Cl)c(Cl)c3)C(N)=N2)cc1 | > 100 µM | > 100 µM | > 100 µM | > 100 µM | > 100 µM | > 100 µM | > 100 µM | > 100 µM | > 100 µM | > 100 µM |  |  |  |  |  |  |  |  |  | 
9 | COCOc1ccc(C2(O)Oc3cc(OCOC)ccc3C2C)c(O)c1 (stereo not given) | 31.9 µM | 26.7 µM | 26.6 µM | 30.4 µM | 26.2 µM | 32 µM | 29.1 µM | 32.4 µM | 25.5 µM | 23.8 µM |  |  |  |  |  |  |  |  |  | 
10 | Cc1ccc(Nc2nnc(-c3ccc4c(c3)OCO4)o2)c(C)c1 | > 100 µM | > 100 µM | > 100 µM | > 100 µM | > 100 µM | > 100 µM | > 100 µM | > 100 µM | > 100 µM | > 100 µM |  |  |  |  |  |  |  |  |  | 
11 | O=C1C(=O)N(c2cc(Cl)ccc2Cl)C(=O)C(=O)C1c1nc2ccccc2o1 | > 100 µM | > 100 µM | > 100 µM | > 100 µM | > 100 µM | > 100 µM | > 100 µM | > 100 µM | > 100 µM | > 100 µM |  |  |  |  |  |  |  |  |  | 
12 | COC1=C(Br)C(=O)c2nc(C)ccc2C1=O | 38.5 µM | 24 µM | 32.2 µM | 28.4 µM | 19.5 µM | 16.6 µM | 36.1 µM | 21.7 µM | 33.2 µM | 32.4 µM |  |  |  |  |  |  |  |  |  | 
13 | CCN(CC)c1cc2oc3cc(N)cc(=N)c-3nc2cc1C | 18.3 µM | > 100 µM | 81.2 µM | 4.92 µM | 5.63 µM | > 100 µM | 14.2 µM | 19.5 µM | 5.94 µM | 49 µM | 3.63 µM | 1.69 µM | 10 µM | 2.25 µM | 1.78 µM | 2.77 µM | 3.44 µM | 2.75 µM | 2.06 µM | 3.38 µM
14 | CCCCCc1ccc(S(=O)(=O)Nc2cc(-c3csc(NC(C)=O)n3)ccc2N2CCN(C)CC2)cc1 | 11.8 µM | 9.24 µM | 5.47 µM | 7.73 µM | 9.64 µM | 13.1 µM | 9.63 µM | 4.72 µM | 8.04 µM | 7.57 µM | 5.11 µM | 4.87 µM | 1.62 µM | 2 µM | 4.92 µM | 5.82 µM | 4.98 µM | 1.31 µM | 3.83 µM | 3.53 µM
15 | O=C(OCC(OC(=O)c1ccccc1)C(OC(=O)c1ccccc1)C(OC(=O)c1ccccc1)c1cnn(-c2ccccc2)n1)c1ccccc1 (stereo not given) | > 100 µM | > 100 µM | > 100 µM | > 100 µM | > 100 µM | > 100 µM | > 100 µM | > 100 µM | > 100 µM | > 100 µM |  |  |  |  |  |  |  |  |  | 
16 | NC(=S)N/N=C/c1cc(-c2cccc(N)c2)ccn1 | > 51.3 µM | 16.1 µM | > 43.5 µM | 4.21 µM | 23.2 µM | > 67.9 µM | 6.17 µM | > 81.8 µM | > 24.5 µM | 8.69 µM | 3.11 µM | 1.06 µM | 2.2 µM | 1.49 µM | 1.67 µM | 1.66 µM | 0.675 µM | 3.45 µM | 1.38 µM | 0.907 µM
